Data on 12 compounds can be found in US10227324B2 (Shanghai Haiyan Pharmaceutical Technology Co., Ltd., priority 2014, dated 2019).

Assay [1] has as its target T1, PI3K-α kinase (p110α/p85α) (Homo sapiens, UniProt P42336).
T1 construct: purchased Invitrogen PV4788
Nature of the assay: Determination of PI3K kinase activity (ADP Transcreener, fluorescence polarization). It counts as biochemical. The following applies: for IC50: ATP 10 μM; for increase of inhibitory activity against PI3K-α kinase compared with BKM-120: relative to BKM-120. On the technique in general: Polarisation of emitted light reports the rotation of a fluorescent probe.

Assay [2] has as its target T2, PI3K-β kinase (p110β/p85α) (Homo sapiens, UniProt P42338).
T2 construct: purchased Millipore 14-603
The assay is described as above. It counts as biochemical. Particulars: Table 1; ATP 10 μM; read-out: PI3K-β/nM (IC50 of inhibitory activity against PI3K kinase).

Assay [3] has as its target T3, PI3K-δ kinase (p110δ/p85α) (Homo sapiens, UniProt O00329).
T3 construct: purchased Millipore 14-604M
Described as above. The assay is classed as biochemical. Particulars: Table 1; ATP 10 μM; read-out: PI3K-δ/nM (IC50 of inhibitory activity against PI3K kinase).

Assay [4] relates to Akt phosphorylation (Ser473-p-Akt) in PC-3 cells. The assay is described as follows: Inhibition of p-Akt phosphorylation level in PC-3 cells (cell level fluorescence imaging). It counts as cell-based. Particulars: Homo sapiens; Akt phosphorylation in PC-3 cells, 2 hours incubation; read-out: PC-3 cell (IC50/nM). Summed up: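 Inhibition was computed from p-Akt(Ser473) immunofluorescence scaled to DMSO-treated wells (full signal) and 10 μM BEZ235 wells (background). Cells were treated for 2 h with an 8-point, 3-fold series from 0.0046 to 10 μM in duplicate before fixation, antibody staining with PI counterstain, and plate imaging.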

The subject of the next assay is T47D cells. Nature of the assay: Cell inhibitory activity detected by MTT assay, T47D. The assay is classed as cell-based. The following applies: Homo sapiens, T47D, 72 h, read-out: T47D cell (IC50/nM), cell growth inhibition. (In general: Formazan colour is commonly taken as a measure of viable cells.)
[5] abbreviates: Table 1, read-out: PI3K-α/nM (IC50 of inhibitory activity against PI3K kinase).
The mark [6] stands for this setting: Table 2, read-out: PI3K-α/nM (IC50 of inhibitory activity against PI3K-α kinase).

Where two headings read alike, the source gives them in different places.

T1 sequence (P42336 whole entry): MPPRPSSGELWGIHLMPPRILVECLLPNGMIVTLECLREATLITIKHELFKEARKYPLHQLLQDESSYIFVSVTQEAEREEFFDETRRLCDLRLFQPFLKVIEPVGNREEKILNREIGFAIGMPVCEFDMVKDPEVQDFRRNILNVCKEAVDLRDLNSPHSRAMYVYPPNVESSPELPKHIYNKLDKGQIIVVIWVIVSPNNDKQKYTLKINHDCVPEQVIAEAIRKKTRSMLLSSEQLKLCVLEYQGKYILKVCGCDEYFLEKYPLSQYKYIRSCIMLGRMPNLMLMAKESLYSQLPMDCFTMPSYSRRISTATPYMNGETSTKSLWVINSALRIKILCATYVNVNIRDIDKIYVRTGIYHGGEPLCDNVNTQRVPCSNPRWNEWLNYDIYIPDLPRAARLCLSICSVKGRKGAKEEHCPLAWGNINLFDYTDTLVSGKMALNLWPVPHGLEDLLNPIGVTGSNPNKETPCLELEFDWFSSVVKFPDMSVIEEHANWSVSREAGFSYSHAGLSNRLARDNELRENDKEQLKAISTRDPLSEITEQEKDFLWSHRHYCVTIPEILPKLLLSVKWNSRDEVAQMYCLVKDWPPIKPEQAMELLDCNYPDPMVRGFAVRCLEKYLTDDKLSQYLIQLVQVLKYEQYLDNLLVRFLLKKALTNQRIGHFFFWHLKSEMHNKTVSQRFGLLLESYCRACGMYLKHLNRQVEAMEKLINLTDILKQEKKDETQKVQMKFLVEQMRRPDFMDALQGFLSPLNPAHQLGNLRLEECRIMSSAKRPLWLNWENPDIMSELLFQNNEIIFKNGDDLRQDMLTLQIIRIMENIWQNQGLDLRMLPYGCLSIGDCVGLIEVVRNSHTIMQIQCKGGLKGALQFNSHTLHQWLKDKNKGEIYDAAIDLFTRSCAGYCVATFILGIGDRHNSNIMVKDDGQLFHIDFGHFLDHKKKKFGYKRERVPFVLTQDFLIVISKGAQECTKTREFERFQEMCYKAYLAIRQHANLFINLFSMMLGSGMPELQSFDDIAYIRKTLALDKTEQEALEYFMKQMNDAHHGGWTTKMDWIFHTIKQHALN
T1 sequence (P27986 whole entry partner): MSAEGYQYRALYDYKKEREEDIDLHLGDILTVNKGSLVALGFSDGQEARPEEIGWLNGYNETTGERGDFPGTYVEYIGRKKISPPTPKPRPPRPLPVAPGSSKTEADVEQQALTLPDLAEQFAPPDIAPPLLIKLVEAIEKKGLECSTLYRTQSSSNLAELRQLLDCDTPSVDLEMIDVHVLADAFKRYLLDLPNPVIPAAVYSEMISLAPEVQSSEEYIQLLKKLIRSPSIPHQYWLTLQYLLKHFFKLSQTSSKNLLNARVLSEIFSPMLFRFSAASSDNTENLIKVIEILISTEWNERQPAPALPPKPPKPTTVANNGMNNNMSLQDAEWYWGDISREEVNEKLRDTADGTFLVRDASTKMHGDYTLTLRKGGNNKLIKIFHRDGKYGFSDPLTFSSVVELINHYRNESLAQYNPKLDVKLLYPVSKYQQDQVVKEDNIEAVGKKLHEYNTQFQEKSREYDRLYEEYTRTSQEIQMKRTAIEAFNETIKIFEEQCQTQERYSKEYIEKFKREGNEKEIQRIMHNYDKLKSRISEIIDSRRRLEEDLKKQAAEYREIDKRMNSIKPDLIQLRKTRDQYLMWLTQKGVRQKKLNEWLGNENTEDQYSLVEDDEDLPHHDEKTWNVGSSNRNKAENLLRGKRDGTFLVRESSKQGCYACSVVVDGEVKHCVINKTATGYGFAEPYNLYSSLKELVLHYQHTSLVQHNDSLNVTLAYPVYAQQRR
T3 sequence (O00329 whole entry): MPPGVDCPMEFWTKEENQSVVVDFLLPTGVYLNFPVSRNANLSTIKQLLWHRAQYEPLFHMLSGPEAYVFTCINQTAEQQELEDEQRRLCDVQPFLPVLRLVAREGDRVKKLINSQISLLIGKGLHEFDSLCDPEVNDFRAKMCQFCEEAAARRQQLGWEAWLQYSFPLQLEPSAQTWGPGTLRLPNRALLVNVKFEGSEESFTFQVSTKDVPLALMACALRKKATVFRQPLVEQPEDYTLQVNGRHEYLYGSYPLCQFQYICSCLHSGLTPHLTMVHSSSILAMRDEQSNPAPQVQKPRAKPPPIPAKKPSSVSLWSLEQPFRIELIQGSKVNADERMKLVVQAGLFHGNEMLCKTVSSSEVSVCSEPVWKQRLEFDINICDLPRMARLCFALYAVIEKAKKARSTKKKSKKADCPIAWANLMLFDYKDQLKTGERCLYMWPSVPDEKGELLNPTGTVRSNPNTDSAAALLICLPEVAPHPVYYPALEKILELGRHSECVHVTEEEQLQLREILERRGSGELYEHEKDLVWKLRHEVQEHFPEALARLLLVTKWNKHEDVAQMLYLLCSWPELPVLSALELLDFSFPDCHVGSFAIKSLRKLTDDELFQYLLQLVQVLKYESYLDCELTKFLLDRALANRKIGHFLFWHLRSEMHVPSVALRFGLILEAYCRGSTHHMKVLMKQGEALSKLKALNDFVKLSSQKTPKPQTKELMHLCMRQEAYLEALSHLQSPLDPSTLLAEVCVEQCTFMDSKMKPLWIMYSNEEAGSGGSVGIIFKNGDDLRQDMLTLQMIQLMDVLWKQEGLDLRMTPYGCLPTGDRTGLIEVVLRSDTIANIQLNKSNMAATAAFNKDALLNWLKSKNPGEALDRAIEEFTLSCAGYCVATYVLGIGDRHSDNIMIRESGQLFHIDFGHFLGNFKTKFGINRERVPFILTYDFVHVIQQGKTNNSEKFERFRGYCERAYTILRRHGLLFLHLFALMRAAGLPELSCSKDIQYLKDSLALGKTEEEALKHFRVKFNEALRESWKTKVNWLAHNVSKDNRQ
T3 sequence (P27986 whole entry partner): as the sequence (P27986 whole entry partner) above
T2 sequence (P42338 whole entry): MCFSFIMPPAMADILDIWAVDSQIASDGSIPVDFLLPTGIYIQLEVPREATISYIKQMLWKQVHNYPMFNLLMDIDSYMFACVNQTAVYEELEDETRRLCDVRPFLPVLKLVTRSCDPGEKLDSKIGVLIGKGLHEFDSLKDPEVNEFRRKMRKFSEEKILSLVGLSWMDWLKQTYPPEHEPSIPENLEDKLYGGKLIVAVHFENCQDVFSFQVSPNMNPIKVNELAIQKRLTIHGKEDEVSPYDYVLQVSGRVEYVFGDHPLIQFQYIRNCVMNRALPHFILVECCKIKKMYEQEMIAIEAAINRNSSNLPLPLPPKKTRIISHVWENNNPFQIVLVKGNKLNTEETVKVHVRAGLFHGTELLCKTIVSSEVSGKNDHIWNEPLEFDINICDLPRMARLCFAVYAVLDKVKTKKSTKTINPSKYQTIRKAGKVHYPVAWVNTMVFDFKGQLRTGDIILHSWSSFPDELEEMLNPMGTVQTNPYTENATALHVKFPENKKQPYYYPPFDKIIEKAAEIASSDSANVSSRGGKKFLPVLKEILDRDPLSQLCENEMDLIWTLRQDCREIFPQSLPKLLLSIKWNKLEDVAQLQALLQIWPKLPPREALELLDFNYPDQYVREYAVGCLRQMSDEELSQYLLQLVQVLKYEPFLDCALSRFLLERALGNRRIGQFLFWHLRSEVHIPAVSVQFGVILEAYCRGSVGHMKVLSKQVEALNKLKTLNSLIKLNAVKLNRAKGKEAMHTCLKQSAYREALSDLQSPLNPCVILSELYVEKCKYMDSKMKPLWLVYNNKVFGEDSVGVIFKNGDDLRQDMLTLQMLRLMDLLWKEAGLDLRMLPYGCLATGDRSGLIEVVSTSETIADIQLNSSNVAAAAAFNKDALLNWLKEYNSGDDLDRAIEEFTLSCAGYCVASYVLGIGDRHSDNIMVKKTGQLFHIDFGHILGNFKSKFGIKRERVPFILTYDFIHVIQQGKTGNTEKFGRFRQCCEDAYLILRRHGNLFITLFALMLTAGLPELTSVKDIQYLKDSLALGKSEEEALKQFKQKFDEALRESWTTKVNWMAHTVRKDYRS
T2 sequence (P27986 whole entry partner): as the sequence (P27986 whole entry partner) above

For `COC(C)(C)c1cc(-c2cnc(N)cc2Cl)nc(N2CCOCC2)n1` [Compound S-76], the IC50 in assay [1] (setting [5]) came to 53 nM; in assay [1] (setting [6]), 53 nM; in assay [2] it was 316 nM; in assay [3], 207 nM; in assay [4] it was 531 nM; with T47D cells it was 289 nM.
On to `C[C@H]1COCCN1c1nc(-c2cnc(N)cc2C(F)(F)F)cc(C(C)(C)S(C)(=O)=O)n1` [Compound S-41], for which the IC50 is 6 nM in assay [1] (setting [5]); 82 nM in assay [2]; 79 nM in assay [3]; 414 nM in assay [4]; 148 nM with T47D cells.
Regarding `CCS(=O)(=O)C1(c2cc(-c3cnc(N)cc3F)nc(N3CCOCC3)n2)CC1` [Compound S-85], the IC50 in assay [1] (setting [5]) was 29 nM; in assay [1] (setting [6]) it was 29 nM; in assay [2], 484 nM; in assay [3], 228 nM; in assay [4], 161 nM; in the assay with T47D cells, 63 nM.
With `CC(C)(c1cc(-c2cnc(N)cc2F)nc(N2CCOCC2)n1)S(C)(=O)=O` [Compound S-81], the IC50 worked out at 43 nM in assay [1] (setting [5]); 812 nM in assay [2]; 178 nM in assay [3]; 215 nM in assay [4]; 123 nM with T47D cells.
Taken in the same sequence, the figures for `C[C@H]1COCCN1c1nc(-c2ccc(N)nc2)cc(C2(S(C)(=O)=O)CCC2)n1` [Compound S-32] were 76 nM, 977 nM, 161 nM, 74 nM and 95 nM.
Taken in the same sequence, the figures for `C[C@H]1COCCN1c1nc(-c2cnc(N)nc2)cc(C2(S(C)(=O)=O)CCC2)n1` [Compound S-33] were 12 nM, 115 nM, 58 nM, 109 nM and 120 nM.
For the compound `Nc1cc(F)c(-c2cc(C3(S(=O)(=O)C4CC4)CC3)nc(N3CCOCC3)n2)cn1` [Compound S-88], the IC50 in assay [1] (setting [5]) amounted to 48 nM; in assay [1] (setting [6]), 48 nM; in assay [2], 521 nM; in assay [3], 209 nM; in assay [4] it was 349 nM; with T47D cells, 81 nM.
Take `C[C@@H]1COCCN1c1nc(-c2cnc(N)cc2Cl)cc(C2(S(C)(=O)=O)CC2)n1` [Compound S-68]: the IC50 came out at 8 nM in assay [1] (setting [5]); 8 nM in assay [1] (setting [6]); 92 nM in assay [2]; 143 nM in assay [3]; 183 nM in assay [4]; 73 nM in the assay on T47D cells.
Take `CS(=O)(=O)C1(c2cc(-c3cnc(N)cc3Cl)nc(N3CCOCC3)n2)CC1` [Compound S-37, 4-chloro-5-(6-(1-(methylsulfonyl)cyclopropyl)-2-morpholinopyrimidin-4-yl)pyridin-2-amine]: the IC50 in assay [1] (setting [5]) came to 4 nM; in assay [1] (setting [6]), 4 nM; in assay [2], 28 nM; in assay [3] it was 84 nM; in assay [4], 198 nM; with T47D cells, 202 nM. Moreover, the “increase of inhibitory activity against PI3K-α kinase compared with BKM-120” value in assay [1] is listed as “about 10 times”.
As to `CS(=O)(=O)C1(c2cc(-c3cnc(N)cc3C(F)(F)F)nc(N3CCOCC3)n2)CCC1` [Compound S-4], the IC50 in assay [1] (setting [5]) is 12 nM; in assay [2] it was 527 nM; in assay [3], 184 nM; in assay [4], 248 nM; with T47D cells it was 124 nM.
Taken in the same sequence, the figures for `C[C@H]1COCCN1c1nc(-c2cnc(N)nc2C(F)(F)F)cc(C2(S(C)(=O)=O)CCC2)n1` [Compound S-30] were 12 nM, 18 nM, 12 nM, 101 nM and 100 nM.
Take `C[C@H]1COCCN1c1nc(-c2cnc(N)cc2C(F)(F)F)cc(C2(S(C)(=O)=O)CCC2)n1` [Compound S-9]: the IC50 came out at 5 nM in assay [1] (setting [5]); 105 nM in assay [2]; 63 nM in assay [3]; 184 nM in assay [4]; 93 nM in the assay on T47D cells. Moreover, the “increase of inhibitory activity against PI3K-α kinase compared with BKM-120” value in assay [1] is “about 10 times”.
